PubChem BioAssay AID651892 (Broad Institute, 2012)
Activity calls are given as the source filed them.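 The calls were made as follows: active = IC50 below three times the IC50 of the reference antileishmanial control drug; inactive = the rest.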

Tested on: L. donovani axenic amastigotes, Alamar Blue fluorescence, 72 h
Test: L. donovani amastigote growth inhibition, dose response, axenic amastigotes, plate reader, dry powder (AID 651892)

SMILES: C[C@@H]1CN([C@@H](C)CO)C(=O)c2cccc(NC(=O)c3ccncc3)c2O[C@H]1CN(C)Cc1ccc(Oc2ccccc2)cc1
- IC50: 40.5 µM (inactive)
